Data published in PubChem BioAssay AID180 (DTP/NCI, 2004).
Several values for one entry are separate records, joined by “and”; a condition that tells them apart may be missing. Equal values may be shown once.

Tested on: BDF1 mice, Adenocarcinoma 755 s.c., tumor weight T/C
Experiment: NCI In Vivo Anticancer Drug Screen. Data for tumor model Adenocarcinoma 755 (subcutaneous) in B6D2F1 (BDF1) mice
Conditions: endpoint: mean tumor weight, higher = larger tumour
Protocol: The antitumor activity of compounds was measured in mice bearing transplantable tumors. Survival or tumor size were measured and the results are expressed as the measurement made in the treated group (T) divided by the measurement made in the vehicle treated control group (C). The tumor model used in this assay is Adenocarcinoma 755 (subcutaneous) in B6D2F1 (BDF1) mice

[1] = dose: 50.0 mg/kg/injection, schedule: Q01DX011 (sc), vehicle: steriod suspending solution
[2] = dose: 100.0 mg/kg/injection, schedule: Q01DX011 (sc), vehicle: steriod suspending solution
[3] = dose: 15.0 mg/kg/injection, schedule: Q01DX011 (ip), vehicle: methylcellulose (MC)
[4] = dose: 31.0 mg/kg/injection, schedule: Q01DX011 (ip), vehicle: methylcellulose (MC)
[5] = dose: 62.0 mg/kg/injection, schedule: Q01DX011 (ip), vehicle: methylcellulose (MC)
[6] = dose: 125.0 mg/kg/injection, schedule: Q01DX011 (ip), vehicle: methylcellulose (MC)
[7] = dose: 250.0 mg/kg/injection, schedule: Q01DX011 (ip), vehicle: methylcellulose (MC)

## CC(=O)OCC(=O)[C@@]1(O)CC[C@H]2[C@@H]3CCC4=CC(=O)[C@H](C)C[C@]4(C)[C@H]3[C@@H](O)C[C@@]21C
dose: 6.2 mg/kg/injection, schedule: Q01DX011 (sc), vehicle: steriod suspending solution
  T/C: 52 % of control
dose: 12.5 mg/kg/injection, schedule: Q01DX011 (sc), vehicle: steriod suspending solution
  T/C: 43 % of control
dose: 25.0 mg/kg/injection, schedule: Q01DX011 (sc), vehicle: steriod suspending solution
  T/C: 13 % of control and 38 % of control
[1]
  T/C: 32 % of control
[2]
  T/C: 15 % of control
dose: 400.0 mg/kg/injection, schedule: Q01DX011 (sc), vehicle: steriod suspending solution
  T/C: 4 % of control

## CC(=O)N[C@H]1CC[C@H]2[C@@H]3CCC4=CC(=O)CC[C@]4(C)[C@H]3CC[C@]12C
dose: 5.0 mg/kg/injection, schedule: Q01DX011 (sc), vehicle: steriod suspending solution
  T/C: 99 % of control
[1]
  T/C: 111 % of control
[2]
  T/C: 89 % of control

## N#CCCn1cnc2c(=S)nc[nH]c21
dose: 14.0 mg/kg/injection, schedule: Q01DX011 (ip), vehicle: other
  T/C: 89 % of control

## CN(C)N=Nc1ccc(CCC(=O)NN)cc1
dose: 10.0 mg/kg/injection, schedule: Q01DX011 (ip), vehicle: saline
  T/C: 63 % of control
dose: 15.0 mg/kg/injection, schedule: Q01DX011 (ip), vehicle: saline
  T/C: 56 % of control
dose: 20.0 mg/kg/injection, schedule: Q01DX011 (ip), vehicle: saline
  T/C: 44 % of control
dose: 31.0 mg/kg/injection, schedule: Q01DX011 (ip), vehicle: saline
  T/C: 40 % of control

## O=S(=O)(Nc1ccccc1)c1ccc(C2CC3(Cl)C(Cl)=C(Cl)C2(Cl)C3(Cl)Cl)cc1 (stereo unspecified)
dose: 28.12 mg/kg/injection, schedule: Q01DX011 (ip), vehicle: methylcellulose (MC)
  T/C: 90 % of control and 109 % of control
dose: 112.5 mg/kg/injection, schedule: Q01DX011 (ip), vehicle: methylcellulose (MC)
  T/C: 95 % of control and 107 % of control
dose: 225.0 mg/kg/injection, schedule: Q01DX011 (ip), vehicle: methylcellulose (MC)
  T/C: 69 % of control

## C=C(Cl)CN(CC)CCO
dose: 50.0 mg/kg/injection, schedule: Q01DX011 (ip), vehicle: other
  T/C: 77 % of control
dose: 100.0 mg/kg/injection, schedule: Q01DX011 (ip), vehicle: other
  T/C: 69 % of control
dose: 200.0 mg/kg/injection, schedule: Q01DX011 (ip), vehicle: other
  T/C: 76 % of control

## CCCCn1cnc2c(=S)nc[nH]c21
dose: 2.5 mg/kg/injection, schedule: Q01DX011 (ip), vehicle: carboxymethylcellulose (CMC)
  T/C: 62 % of control
dose: 5.0 mg/kg/injection, schedule: Q01DX011 (ip), vehicle: carboxymethylcellulose (CMC)
  T/C: 25 % of control
dose: 5.0 mg/kg/injection, schedule: Q01DX011 (ip), vehicle: olive oil, sesame oil, peanut oil
  T/C: 41 % of control
dose: 5.0 mg/kg/injection, schedule: Q#A X022 (ip), vehicle: carboxymethylcellulose (CMC)
  T/C: 4 % of control
dose: 8.0 mg/kg/injection, schedule: Q01DX011 (ip), vehicle: carboxymethylcellulose (CMC)
  T/C: 32 % of control
dose: 10.0 mg/kg/injection, schedule: Q01DX006 (iv), vehicle: carboxymethylcellulose (CMC)
  T/C: 20 % of control
dose: 10.0 mg/kg/injection, schedule: Q01DX011 (im), vehicle: carboxymethylcellulose (CMC)
  T/C: 5 % of control
dose: 10.0 mg/kg/injection, schedule: Q01DX011 (ip), vehicle: carboxymethylcellulose (CMC)
  T/C: 2 % of control
dose: 10.0 mg/kg/injection, schedule: Q01DX011 (ip), vehicle: olive oil, sesame oil, peanut oil
  T/C: 14 % of control
dose: 10.0 mg/kg/injection, schedule: Q#A X022 (ip), vehicle: carboxymethylcellulose (CMC)
  T/C: 1 % of control
dose: 16.0 mg/kg/injection, schedule: Q01DX011 (ip), vehicle: carboxymethylcellulose (CMC)
  T/C: 8 % of control
dose: 20.0 mg/kg/injection, schedule: Q01DX006 (iv), vehicle: carboxymethylcellulose (CMC)
  T/C: 6 % of control
dose: 20.0 mg/kg/injection, schedule: Q01DX011 (im), vehicle: carboxymethylcellulose (CMC)
  T/C: 2 % of control
dose: 20.0 mg/kg/injection, schedule: Q01DX011 (ip), vehicle: carboxymethylcellulose (CMC)
  T/C: 1 % of control
dose: 20.0 mg/kg/injection, schedule: Q#A X022 (ip), vehicle: carboxymethylcellulose (CMC)
  T/C: 2 % of control
dose: 25.0 mg/kg/injection, schedule: Q01DX011 (ip), vehicle: carboxymethylcellulose (CMC)
  T/C: 6 % of control
dose: 27.0 mg/kg/injection, schedule: Q01DX001 (ip), vehicle: carboxymethylcellulose (CMC)
  T/C: 73 % of control
dose: 32.0 mg/kg/injection, schedule: Q01DX011 (ip), vehicle: carboxymethylcellulose (CMC)
  T/C: 3 % of control
dose: 40.0 mg/kg/injection, schedule: Q01DX006 (iv), vehicle: carboxymethylcellulose (CMC)
  T/C: 1 % of control
dose: 40.0 mg/kg/injection, schedule: Q01DX011 (im), vehicle: carboxymethylcellulose (CMC)
  T/C: 2 % of control
dose: 40.0 mg/kg/injection, schedule: Q#A X022 (ip), vehicle: carboxymethylcellulose (CMC)
  T/C: 1 % of control
dose: 54.0 mg/kg/injection, schedule: Q01DX001 (ip), vehicle: carboxymethylcellulose (CMC)
  T/C: 59 % of control
dose: 64.0 mg/kg/injection, schedule: Q01DX011 (ip), vehicle: carboxymethylcellulose (CMC)
  T/C: 3 % of control
dose: 75.0 mg/kg/injection, schedule: Q01DX011 (ip), vehicle: carboxymethylcellulose (CMC)
  T/C: 4 % of control
dose: 107.0 mg/kg/injection, schedule: Q01DX001 (ip), vehicle: carboxymethylcellulose (CMC)
  T/C: 8 % of control
dose: 214.0 mg/kg/injection, schedule: Q01DX001 (ip), vehicle: carboxymethylcellulose (CMC)
  T/C: 5 % of control

## c1nc2c3c(n1)ncn3CCN2
dose: 25.0 mg/kg/injection, schedule: Q01DX011 (ip), vehicle: saline
  T/C: 85 % of control
dose: 75.0 mg/kg/injection, schedule: Q01DX011 (ip), vehicle: saline
  T/C: 74 % of control
dose: 225.0 mg/kg/injection, schedule: Q01DX011 (ip), vehicle: saline
  T/C: 99 % of control

## Cn1cnc2c(ncn2C2CC(O)C(CO)O2)c1=N (stereo unspecified)
dose: 30.0 mg/kg/injection, schedule: Q01DX011 (ip), vehicle: saline
  T/C: 83 % of control
dose: 60.0 mg/kg/injection, schedule: Q01DX011 (ip), vehicle: saline
  T/C: 100 % of control
dose: 120.0 mg/kg/injection, schedule: Q01DX011 (ip), vehicle: saline
  T/C: 80 % of control
dose: 240.0 mg/kg/injection, schedule: Q01DX011 (ip), vehicle: saline
  T/C: 108 % of control

## CCCn1cnc2c(SCc3ccccn3)nc(N)nc21
dose: 3.6 mg/kg/injection, schedule: Q01DX011 (ip), vehicle: methylcellulose (MC)
  T/C: 12 % of control
dose: 7.25 mg/kg/injection, schedule: Q01DX011 (ip), vehicle: methylcellulose (MC)
  T/C: 4 % of control
dose: 15.5 mg/kg/injection, schedule: Q01DX011 (ip), vehicle: methylcellulose (MC)
  T/C: 1 % of control

## CCOc1ccccc1Nc1cc(Cl)nc(N)n1
[3]
  T/C: 96 % of control
[4]
  T/C: 66 % of control
[5]
  T/C: 70 % of control
[6]
  T/C: 95 % of control
[7]
  T/C: 70 % of control

## CCC1/C=C/C=C/CC(C)C(O)C(C)(O)C(=O)C(C)C(O)C(C)C(=O)C(C)C(O)C(C)/C=C/C(=O)OC2C(C)C(CC1)OC1(OC(CC(C)O)C(C)CC1=O)C2C (stereo unspecified) (tested in a mixture with another compound)
dose: 1.0 mg/kg/injection, schedule: Q01DX011 (ip), vehicle: saline
  T/C: 68 % of control
dose: 2.0 mg/kg/injection, schedule: Q01DX011 (ip), vehicle: saline
  T/C: 87 % of control
dose: 4.0 mg/kg/injection, schedule: Q01DX011 (ip), vehicle: saline
  T/C: 61 % of control

## Nc1nc(Cl)cc(Nc2cccc(Cl)c2)n1
[3]
  T/C: 99 % of control
[4]
  T/C: 104 % of control
[5]
  T/C: 103 % of control
[6]
  T/C: 94 % of control
[7]
  T/C: 68 % of control

## CC(=O)OCC1OC(n2cnc3c(=S)nc[nH]c32)C(OC(C)=O)C1OC(C)=O (stereo unspecified)
dose: 0.2 mg/kg/injection, schedule: Q01DX011 (ip), vehicle: carboxymethylcellulose (CMC)
  T/C: 84 % of control
dose: 0.4 mg/kg/injection, schedule: Q01DX011 (ip), vehicle: carboxymethylcellulose (CMC)
  T/C: 93 % of control
dose: 0.9 mg/kg/injection, schedule: Q01DX011 (ip), vehicle: carboxymethylcellulose (CMC)
  T/C: 61 % of control
dose: 1.8 mg/kg/injection, schedule: Q01DX011 (ip), vehicle: carboxymethylcellulose (CMC)
  T/C: 14 % of control and 31 % of control
dose: 3.7 mg/kg/injection, schedule: Q01DX011 (ip), vehicle: carboxymethylcellulose (CMC)
  T/C: 6 % of control
dose: 7.5 mg/kg/injection, schedule: Q01DX011 (ip), vehicle: carboxymethylcellulose (CMC)
  T/C: 3 % of control
dose: 15.0 mg/kg/injection, schedule: Q01DX011 (ip), vehicle: carboxymethylcellulose (CMC)
  T/C: 2 % of control
